Molecules are shown by their SMILES.

This test relates to TEAD Reporter-MCF7 cell line. In words: YAP/TEAD cellular activity assay: inhibition of TEAD-Luc activity in TEAD Reporter-MCF7 cell line. The format is cell-based, human. As to conditions: Homo sapiens, MCF7, 24 h, TEAD Reporter-MCF7 cells, 24 hours incubation with compound, luciferase readout. Here is the method:
YAP/TEAD Cellular Activity Assay
Quantitation of Compound Potency on the Inhibition of TEAD-Luc Activity in TEAD Reporter-MCF7 Cell Line.
The TEAD Reporter-MCF7 cell line containing the firefly luciferase gene under the control of TEAD responsive elements stably integrated into the human breast cancer cell line was purchased from BPS Bioscience (Cat #60618). The cells were cultured with complete culture medium ([…], 1 mM sodium pyruvate, 10% fetal bovine serum, 10 ng/mL insulin and 400 ug/mL G418 sulfate) prior to the assay. For the assay, the cells were harvested, resuspended in the complete culture medium without G418, and seeded into white solid bottom 384-well cell culture microplates in 25 uL with 10,000 cells per well. The plates were incubated at 37° C. in a CO2 incubator for 20-24 hours and the compounds were then transferred from Echo LDV plates directly into the 384-well white tissue culture plates with an Echo. The plates were incubated at 37° C. in a CO2 incubator for 24 hours and equal volume of ONE-Glo™ EX Luciferase reagent (Promega, Cat #E8150) was added. After mixing on a shaker at room temperature for 10 minutes, the luciferase activity was measured with an Envision. The percentage inhibition and EC50 values of compounds were calculated with Spotfire.
Required Materials • 1. TEAD reporter-MCF-7 Cells (BPS Bioscience, #60618) • 2. Complete Cell Culture Medium (without selection antibiotics) • EMEM 89% (ATCC, #30-2003) • FBS 10% (Hyclone, #SH30088.03) • 1% Non essential amino acids (Gibco, • 1 mM sodium pyruvate (Gibco, • Pen/Strep, 1% (Gibco, #15140-122) • 10 ng/mL insulin (Sigma, #10516) • 3. Complete Cell Culture Medium (with selection antibiotics) • EMEM 89% (ATCC, #30-2003) • F1% Non essential amino acids (Gibco, • 1 mM sodium pyruvate (Gibco, • BS 10% (Hyclone, #SH30088.03) • 10 ng/mL insulin (Sigma, #10516) • 400 ug/mL G418 sulfate (Agilent, #200049-21) • 4. Miscellaneous tissue culture equipment and reagents. • 5. White solid 384-well tissue culture plate (Greiner, Cat #781080) • 6. One Glo EX luciferase assay system (Promega, #E8150)
The following table tabulates the biological data disclosed for the current invention. The biological data was collected using the methodology described above. For each compound, TEAD-Luc EC50 values are listed in nanomolar (nM) concentration units.
For the molecule `CNS(=O)(=O)c1ccc(Oc2ccc(C(F)(F)F)cc2)c(-c2cn3ccsc3n2)c1` [1-18, 3-(imidazo[2,1-b][1,3]thiazol-6-yl)-N-methyl-4-[4-(trifluoromethyl)phenoxy]benzene-1-sulfonamide], the EC50 came out at 34.1 nM.
Consider `CNS(=O)(=O)c1ccc(Oc2ccc(C(F)(F)F)cc2)c(-c2cc3ncccn3n2)c1` [1-19, N-methyl-3-(pyrazolo[1,5-a]pyrimidin-2-yl)-4-[4-(trifluoromethyl)phenoxy]benzene-1-sulfonamide], for which the EC50 was determined as 60.6 nM.
On to `CNS(=O)(=O)c1ccc(Oc2ccc(C(F)(F)F)cc2)c(-c2cnc3ccccn23)c1` [1-20, 3-(imidazo[1,2-a]pyridin-3-yl)-N-methyl-4-[4-(trifluoromethyl)phenoxy]benzene-1-sulfonamide], for which the EC50 worked out at 7140 nM.
The same measure for `CNS(=O)(=O)c1ccc(Oc2ccc(C(F)(F)F)cc2)c(-c2cnc3c(N)cccn23)c1` [1-21, 3-(8-aminoimidazo[1,2-a]pyridin-3-yl)-N-methyl-4-[4-(trifluoromethyl)phenoxy]benzene-1-sulfonamide]: 9280 nM; for `CNS(=O)(=O)c1ccc(Oc2ccc(C(F)(F)F)cc2)c(-c2nc(C)n3c2COCC3)c1` [1-22, N-methyl-3-(3-methyl-5,6-dihydro-8H-imidazo[5,1-c][1,4]oxazin-1-yl)-4-[4-(trifluoromethyl)phenoxy]benzene-1-sulfonamide]: 1820 nM.
On to `CNS(=O)(=O)c1ccc(Oc2ccc(C(F)(F)F)cc2)c(-c2cnc3ccc(Cl)nn23)c1` [1-23, 3-(6-chloroimidazo[1,2-b]pyridazin-3-yl)-N-methyl-4-[4-(trifluoromethyl)phenoxy]benzene-1-sulfonamide], for which the EC50 turned out to be 3340 nM.
As to `CNS(=O)(=O)c1ccc(Oc2ccc(C(F)(F)F)cc2)c(-c2cnc3ccc(N)cn23)c1` [1-24, 3-(6-aminoimidazo[1,2-a]pyridin-3-yl)-N-methyl-4-[4-(trifluoromethyl)phenoxy]benzene-1-sulfonamide], the concentration giving a half-maximal response (EC50) was determined as 5390 nM.
The same measure for `CNS(=O)(=O)c1ccc(Oc2ccc(C(F)(F)F)cc2)c(-c2cnc3cc(C)ccn23)c1` [1-25, N-methyl-3-(7-methylimidazo[1,2-a]pyridin-3-yl)-4-[4-(trifluoromethyl)phenoxy]benzene-1-sulfonamide]: 3270 nM; for `CNS(=O)(=O)c1ccc(Oc2ccc(C(F)(F)F)cc2)c(-c2cnc3ncccn23)c1` [1-26, 3-(imidazo[1,2-a]pyrimidin-3-yl)-N-methyl-4-[4-(trifluoromethyl)phenoxy]benzene-1-sulfonamide]: 335 nM; for `CNS(=O)(=O)c1ccc(Oc2ccc(C(F)(F)F)cc2)c(-c2cn3ccccc3n2)c1` [1-27, 3-(imidazo[1,2-a]pyridin-2-yl)-N-methyl-4-[4-(trifluoromethyl)phenoxy]benzene-1-sulfonamide]: 28.4 nM.
Take `CNS(=O)(=O)c1ccc(Oc2ccc(C(F)(F)F)cc2)c(-c2nc3ccccc3s2)c1` [1-28, 3-(1,3-benzothiazol-2-yl)-N-methyl-4-[4-(trifluoromethyl)phenoxy]benzene-1-sulfonamide]: the EC50 stood at 66.6 nM.
For `CNS(=O)(=O)c1ccc(Oc2ccc(C(F)(F)F)cc2)c(-c2nc3ccccc3o2)c1` [1-29, 3-(1,3-benzoxazol-2-yl)-N-methyl-4-[4-(trifluoromethyl)phenoxy]benzene-1-sulfonamide] the value was 861 nM; for `CNS(=O)(=O)c1ccc(Oc2ccc(C(F)(F)F)cc2)c(-c2cn3ccc(C(=O)OC)cc3n2)c1` [1-30, methyl 2-{5-(methylsulfamoyl)-2-[4-(trifluoromethyl)phenoxy]phenyl} imidazo[1,2-a]pyridine-7-carboxylate], 7800 nM; for `CNS(=O)(=O)c1ccc(Oc2ccc(C(F)(F)F)cc2)c(-c2cn3ccc(C)cc3n2)c1` [1-31, N-methyl-3-(7-methylimidazo[1,2-a]pyridin-2-yl)-4-[4-(trifluoromethyl)phenoxy]benzene-1-sulfonamide], 40.6 nM.
For `CNS(=O)(=O)c1ccc(Oc2ccc(C(F)(F)F)cc2)c(-c2cn3ccc(F)cc3n2)c1` [1-32, 3-(7-fluoroimidazo[1,2-a]pyridin-2-yl)-N-methyl-4-[4-(trifluoromethyl)phenoxy]benzene-1-sulfonamide] the value was 62.4 nM; for `CNS(=O)(=O)c1ccc(Oc2ccc(C(F)(F)F)cc2)c(-c2cn3cccc(C)c3n2)c1` [1-33, N-methyl-3-(8-methylimidazo[1,2-a]pyridin-2-yl)-4-[4-(trifluoromethyl)phenoxy]benzene-1-sulfonamide], 236 nM; for `CNS(=O)(=O)c1ccc(Oc2ccc(C(F)(F)F)cc2)c(-c2cn3cc(C)ccc3n2)c1` [1-34, N-methyl-3-(6-methylimidazo[1,2-a]pyridin-2-yl)-4-[4-(trifluoromethyl)phenoxy]benzene-1-sulfonamide], 88.5 nM.
The same measure for `CNS(=O)(=O)c1ccc(Oc2ccc(C(F)(F)F)cc2)c(-c2cc3ccccn3n2)c1` [1-35, N-methyl-3-(pyrazolo[1,5-a]pyridin-2-y1)-4-[4-(trifluoromethyl)phenoxy]benzene-1-sulfonamide]: 99.4 nM; for `CNS(=O)(=O)c1ccc(Oc2ccc(C(F)(F)F)cc2)c(-c2cc3n(n2)CCCC3)c1` [1-36, N-methyl-3-(4,5,6,7-tetrahydropyrazolo[1,5-a]pyridin-2-yl)-4-[4-(trifluoromethyl)phenoxy]benzene-1-sulfonamide]: 4.6 nM; for `CNS(=O)(=O)c1ccc(Oc2ccc(C(F)(F)F)cc2)c(-c2ncn3c2CCCC3)c1` [1-37, N-methyl-3-(5,6,7,8-tetrahydroimidazo[1,5-a]pyridin-1-yl)-4-[4-(trifluoromethyl)phenoxy]benzene-1-sulfonamide]: 414 nM.
`CNS(=O)(=O)c1ccc(Oc2ccc(C(F)F)cc2)c(-c2cn3c(n2)CCC3)c1` [1-40, 4-[4-(difluoromethyl)phenoxy]-3-(6,7-dihydro-5H-pyrrolo[1,2-a]imidazol-2-yl)-N-methylbenzene-1-sulfonamide]: the EC50 was 27 nM.
For `CNS(=O)(=O)c1ccc(Oc2ccc(C(F)(F)F)cc2)c(-c2cc3n(n2)CCN3)c1` [1-45, 3-(2,3-dihydro-1H-imidazo[1,2-b]pyrazol-6-yl)-N-methyl-4-[4-(trifluoromethyl)phenoxy]benzene-1-sulfonamide] the value was 64.4 nM; for `CNS(=O)(=O)c1ccc(Oc2ccc(F)cc2)c(-c2cnn3c2OCC3)c1` [1-46, 3-(2,3-dihydropyrazolo[5,1-b]oxazol-7-yl)-4-(4-fluorophenoxy)-N-methylbenzenesulfonamide], 1860 nM; for `CNS(=O)(=O)c1ccc(Oc2ccc(Cl)cc2)c(-c2cnn3c2OCC3)c1` [1-47, 4-(4-chlorophenoxy)-3-(2,3-dihydropyrazolo[5,1-b]oxazol-7-yl)-N-methylbenzenesulfonamide], 104 nM.
In the case of `CNS(=O)(=O)c1ccc(Oc2ccc(F)c(F)c2)c(-c2cnn3c2OCC3)c1` [1-48, 4-(3,4-difluorophenoxy)-3-(2,3-dihydropyrazolo[5,1-b]oxazol-7-yl)-N-methylbenzenesulfonamide], the EC50 was 1060 nM.
The same measure for `CNS(=O)(=O)c1ccc(Oc2cccc(C(F)(F)F)c2)c(-c2cnn3c2OCC3)c1` [1-49, 3-(2,3-dihydropyrazolo[5,1-b]oxazol-7-yl)-N-methyl-4-(3-(trifluoromethyl)phenoxy)benzenesulfonamide]: 315 nM.
In the case of `CNS(=O)(=O)c1ccc(Oc2ccc(C(C)=O)cc2)c(-c2cn3c(n2)CCC3)c1` [1-50, 4-(4-acetylphenoxy)-3-(6,7-dihydro-5H-pyrrolo[1,2-a]imidazol-2-yl)-N-methylbenzene-1-sulfonamide], the EC50 was 416 nM.
For the molecule `CNS(=O)(=O)c1ccc(Oc2ccc(C(F)(F)F)cc2)c(-c2cnn3c2OCC3)c1` [2-1, 3-(2,3-Dihydropyrazolo[5,1-b]oxazol-7-yl)-N-methyl-4-(4-(trifluoromethyl)phenoxy)benzenesulfonamide], the EC50 came to 26 nM.
In the case of `CNS(=O)(=O)c1ccc(Oc2ccc(C(F)(F)F)cc2)c(-c2ccc3cc(OC)nnc3c2)c1` [2-2, 3-(3-Methoxycinnolin-7-yl)-N-methyl-4-[4-(trifluoromethyl)phenoxy]benzene-1-sulfonamide], the EC50 was determined as 50.5 nM.

For the origin of these results see patent US20240083903A1, “ARYL ETHER COMPOUNDS AS TEAD MODULATORS” (Merck Sharp& Dohme LLC, priority 2021, published 2024).
